# Source: US12103919B2, “3-(5-oxy)-1-oxoisoindolin-2-yl)piperidine-2,6-dione derivatives and uses thereof” (NOVARTIS AG, priority 2021, dated 2024)
# Like-named read-outs stand apart in the source and are kept apart here.
# Molecular target: T1, WIZ (Homo sapiens, UniProt O95785+Q96SW2)
# T1 construct: expressed in transfected cells
# Assay: Quantification of WIZ protein levels in HiBit tag fusion protein assay (293T cells)
# Assay type: cell-based
# Set-up: Dmax: dose or concentration left out as unconfirmed
# Settings: for remaining activity at 25 µM / Dmax at 25 µM / Dmax: HEK-293T; for remaining activity at 25 µM: read-out: WIZ Amax; for Dmax at 25 µM: 100 − Amax; for Dmax at 25 µM / Dmax: read-out: % degradation of WIZ (100 − Amax); for DC50: WIZ HiBit assay in 293T cells, about 18 hours, 10-point 5-fold dilution, top 25 μM, read-out: WIZ AC50
# Procedure: The HiBit system from Promega was used to develop high-throughput and quantitative assays to measure changes in WIZ protein levels in response to compounds. The HiBit tag was derived from a split Nanoluciferase and has the following protein sequence: […] (SEQ ID NO: 1). The complementary fragment of Nanoluciferase (known as LgBit, from Promega), was added to the HiBit tag to form an active Nanoluciferase enzyme whose activity can be precisely measured. In this way, the levels of a fusion protein with the HiBit tag can be quantified in cell lysates.
# Lentiviral vectors, based on the Invitrogen™ pLenti6.2/V5 DEST backbone were constructed that places the HiBit tag upstream of WIZ and expressed the fusion protein from an HSVTK promotor.
# To ensure moderate and consistent expression of the HiBit-WIZ fusion protein across all cells in the population, stable cell lines were constructed from cells harboring a single copy of the construct. Lentivirus packaged with the constructs were made using the ViraPowerTMkit from Invitrogen™. 293T cells from ATCC (Catalog number: CRL-3216), were infected with the virus at low multiplicity of infection and selected by 5 μg/mL blasticidin in culture media for 2 weeks.
# The levels of HiBit-WIZ tagged fusion proteins in compound-treated cell lines were measured as follows:
# On day 1, cells were diluted to 1.0×10^6 cells/ml in normal growth medium. 20 μL of cell suspension were plated in each well of a solid white 384-well plate. Plates were incubated overnight in a 37° C. and 5% CO2 humidified tissue culture incubator.
# On day 2, serial dilutions of compounds were made in 384-well plates. Compound plates were set up with DMSO in columns 1, 2, 23, 24, and 10-point compound dilution series in column 3-12 and column 13-22. 10 mM stock solution of compound were placed into column 3 or 13 and a 1:5 serial dilution was carried out until there was a 10-point dilution series per compound. 50 nL of diluted compounds were transferred into the plated cells by Echo® (Labcyte) acoustic transfer. The highest concentration of compound was 25 μM. Plates were incubated overnight (about 18 hours) in a 37° C. and 5% CO2 humidified tissue culture incubator.
# On day 3, plates were removed from the incubator and allowed to equilibrate at room temperature for 60 minutes. HiBit substrate (Nano-Glo® HiBit Lytic Detection System, Promega Catalogue number: N3050) was added as described by the manufacturers protocols. Plates were incubated at room temperature for 30 minutes and luminescence was read using an EnVision® reader (PerkinElmer®). Data was analyzed and visualized using the Spotfire® software package.
# WIZ Amax reflects the DMSO-normalized, curve-fitted percentage of WIZ-HiBit remaining at 25 uM. It was calculated by normalizing DMSO controls to 100%, parametric curve fitting of the dose response data (10-point, 5-fold), followed by calculation of response at 25 uM using the fitted equation.
# [1] = DMSO-normalized, curve-fitted percentage of WIZ-HiBit remaining at 25 uM
# T1 sequence (O95785 whole entry): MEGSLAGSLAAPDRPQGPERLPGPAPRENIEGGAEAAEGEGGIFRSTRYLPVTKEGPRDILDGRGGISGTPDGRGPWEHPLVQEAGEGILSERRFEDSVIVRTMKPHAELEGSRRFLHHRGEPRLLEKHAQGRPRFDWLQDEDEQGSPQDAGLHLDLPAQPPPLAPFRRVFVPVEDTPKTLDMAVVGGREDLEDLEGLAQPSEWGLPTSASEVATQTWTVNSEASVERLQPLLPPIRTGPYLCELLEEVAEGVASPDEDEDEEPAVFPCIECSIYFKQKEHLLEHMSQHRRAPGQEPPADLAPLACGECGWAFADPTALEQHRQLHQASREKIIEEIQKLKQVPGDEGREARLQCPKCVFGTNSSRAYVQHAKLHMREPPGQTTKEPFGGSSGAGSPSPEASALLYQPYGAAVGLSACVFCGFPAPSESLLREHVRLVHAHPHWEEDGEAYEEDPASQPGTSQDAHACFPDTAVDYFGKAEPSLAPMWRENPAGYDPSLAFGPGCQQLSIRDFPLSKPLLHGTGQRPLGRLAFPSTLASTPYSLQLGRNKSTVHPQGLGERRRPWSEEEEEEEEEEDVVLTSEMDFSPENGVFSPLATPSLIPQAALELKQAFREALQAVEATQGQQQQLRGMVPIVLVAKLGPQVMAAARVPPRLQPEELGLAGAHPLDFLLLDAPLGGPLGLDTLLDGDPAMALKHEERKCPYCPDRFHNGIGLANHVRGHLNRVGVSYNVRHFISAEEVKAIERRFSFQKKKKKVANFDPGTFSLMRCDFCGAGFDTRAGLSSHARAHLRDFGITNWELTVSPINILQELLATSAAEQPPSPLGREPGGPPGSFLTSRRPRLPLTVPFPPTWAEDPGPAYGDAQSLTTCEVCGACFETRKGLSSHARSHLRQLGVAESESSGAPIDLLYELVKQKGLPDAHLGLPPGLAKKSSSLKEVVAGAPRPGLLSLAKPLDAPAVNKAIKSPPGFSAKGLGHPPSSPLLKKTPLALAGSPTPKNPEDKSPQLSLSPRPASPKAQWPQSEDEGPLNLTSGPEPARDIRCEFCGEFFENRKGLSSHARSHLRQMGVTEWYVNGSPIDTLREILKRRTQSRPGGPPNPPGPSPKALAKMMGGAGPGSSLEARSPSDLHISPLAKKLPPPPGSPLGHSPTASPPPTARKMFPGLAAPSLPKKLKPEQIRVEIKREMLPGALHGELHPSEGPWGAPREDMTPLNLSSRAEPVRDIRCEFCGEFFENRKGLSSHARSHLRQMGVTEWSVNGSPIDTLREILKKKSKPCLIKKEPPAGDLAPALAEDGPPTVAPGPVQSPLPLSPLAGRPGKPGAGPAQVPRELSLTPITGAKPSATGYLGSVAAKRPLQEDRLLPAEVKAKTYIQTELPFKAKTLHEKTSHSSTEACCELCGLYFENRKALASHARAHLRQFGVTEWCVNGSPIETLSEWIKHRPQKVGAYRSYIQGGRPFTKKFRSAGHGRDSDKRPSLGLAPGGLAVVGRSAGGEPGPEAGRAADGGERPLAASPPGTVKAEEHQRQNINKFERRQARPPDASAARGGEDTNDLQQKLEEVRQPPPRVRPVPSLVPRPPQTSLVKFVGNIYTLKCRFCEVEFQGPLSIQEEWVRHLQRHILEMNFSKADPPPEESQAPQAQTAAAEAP
# T1 sequence (Q96SW2 whole entry): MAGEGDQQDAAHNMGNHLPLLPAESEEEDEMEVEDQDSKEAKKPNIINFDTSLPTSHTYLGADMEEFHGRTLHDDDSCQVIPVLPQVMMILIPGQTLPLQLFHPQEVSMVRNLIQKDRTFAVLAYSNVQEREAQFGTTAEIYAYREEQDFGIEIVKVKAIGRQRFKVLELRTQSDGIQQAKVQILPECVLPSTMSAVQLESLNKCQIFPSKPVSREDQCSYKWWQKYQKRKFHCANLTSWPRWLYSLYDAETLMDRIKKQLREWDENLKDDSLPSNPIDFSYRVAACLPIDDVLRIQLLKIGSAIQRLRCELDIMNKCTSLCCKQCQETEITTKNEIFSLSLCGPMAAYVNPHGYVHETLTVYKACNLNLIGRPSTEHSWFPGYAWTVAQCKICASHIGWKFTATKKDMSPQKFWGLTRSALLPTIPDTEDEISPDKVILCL
# T1 sequence (Q16531 whole entry partner): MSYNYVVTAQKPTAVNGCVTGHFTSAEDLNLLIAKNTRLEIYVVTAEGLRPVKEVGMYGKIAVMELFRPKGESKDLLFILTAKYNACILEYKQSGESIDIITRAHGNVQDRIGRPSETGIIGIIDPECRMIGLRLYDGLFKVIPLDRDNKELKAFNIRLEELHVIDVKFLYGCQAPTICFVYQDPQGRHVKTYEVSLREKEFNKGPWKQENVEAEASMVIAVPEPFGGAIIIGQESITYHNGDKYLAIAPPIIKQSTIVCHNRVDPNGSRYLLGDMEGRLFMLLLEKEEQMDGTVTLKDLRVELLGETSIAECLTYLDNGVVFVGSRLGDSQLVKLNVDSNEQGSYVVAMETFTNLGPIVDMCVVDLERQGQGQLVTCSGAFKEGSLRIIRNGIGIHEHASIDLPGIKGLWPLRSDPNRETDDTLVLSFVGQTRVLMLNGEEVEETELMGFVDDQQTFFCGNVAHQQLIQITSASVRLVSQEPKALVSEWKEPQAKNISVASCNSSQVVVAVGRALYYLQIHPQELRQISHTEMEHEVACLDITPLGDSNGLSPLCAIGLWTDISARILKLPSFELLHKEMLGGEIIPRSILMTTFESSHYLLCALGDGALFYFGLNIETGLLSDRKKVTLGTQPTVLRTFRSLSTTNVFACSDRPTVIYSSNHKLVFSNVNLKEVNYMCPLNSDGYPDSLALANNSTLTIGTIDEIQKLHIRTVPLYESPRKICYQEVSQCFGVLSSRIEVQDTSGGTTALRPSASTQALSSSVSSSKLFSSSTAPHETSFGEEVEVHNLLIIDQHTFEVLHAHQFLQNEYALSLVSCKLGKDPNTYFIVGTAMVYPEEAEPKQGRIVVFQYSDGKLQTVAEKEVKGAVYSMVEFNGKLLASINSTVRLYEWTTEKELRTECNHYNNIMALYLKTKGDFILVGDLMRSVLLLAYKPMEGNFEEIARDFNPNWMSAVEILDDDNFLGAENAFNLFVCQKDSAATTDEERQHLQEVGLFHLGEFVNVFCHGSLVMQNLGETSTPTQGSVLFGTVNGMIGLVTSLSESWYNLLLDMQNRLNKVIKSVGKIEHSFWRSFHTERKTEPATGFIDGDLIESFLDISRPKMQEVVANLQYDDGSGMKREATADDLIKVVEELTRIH
SMILES,remaining activity at 25 µM [1] [%],Dmax at 25 µM [%],DC50 [nM],Dmax [%],remaining activity at 25 µM [%]
"O=C1CCC(N2Cc3cc(O[C@@H]4CCCN(C5CC6(CCOCC6)C5)C4)ccc3C2=O)C(=O)N1 (stereo partly drawn) [Example 28, 3-(5-(((R)-1-(7-oxaspiro[3.5]nonan-2-yl)piperidin-3-yl)oxy)-1-oxoisoindolin-2-yl)piperidine-2,6-dione]",67.1,32.9,84,–,–
"CCN1CCCC[C@@H](Oc2ccc3c(c2)CN(C2CCC(=O)NC2=O)C3=O)C1 (stereo partly drawn) [Example 36, 3-(5-(((R)-1-ethylazepan-3-yl)oxy)-1-oxoisoindolin-2-yl)piperidine-2,6-dione]",–,–,57,67.5,32.5
"CCN1CCCC[C@H](Oc2ccc3c(c2)CN(C2CCC(=O)NC2=O)C3=O)C1 (stereo partly drawn) [Example 37, 3-(5-(((S)-1-ethylazepan-3-yl)oxy)-1-oxoisoindolin-2-yl)piperidine-2,6-dione]",–,–,> 25000,–,103
"CCN1CC[C@@H](Oc2ccc3c(c2)CN(C2CCC(=O)NC2=O)C3=O)C1 (stereo partly drawn) [Example 39, 3-(5-(((R)-1-ethylpyrrolidin-3-yl)oxy)-1-oxoisoindolin-2-yl)piperidine-2,6-dione]",–,–,210,52.1,47.9
"CCN1C[C@@H](F)C[C@@H](Oc2ccc3c(c2)CN(C2CCC(=O)NC2=O)C3=O)C1 (stereo partly drawn) [Example 59, 3-(5-(((3R,5S)-1-ethyl-5-fluoropiperidin-3-yl)oxy)-1-oxoisoindolin-2-yl)piperidine-2,6-dione]",–,–,2.6,64.4,35.6
"CCN1C[C@H](F)C[C@@H](Oc2ccc3c(c2)CN(C2CCC(=O)NC2=O)C3=O)C1 (stereo partly drawn) [Example 60, 3-(5-(((3R,5R)-1-ethyl-5-fluoropiperidin-3-yl)oxy)-1-oxoisoindolin-2-yl)piperidine-2,6-dione]",–,–,78,37,63
"CCO[C@@H]1C[C@@H](Oc2ccc3c(c2)CN(C2CCC(=O)NC2=O)C3=O)CN(CC)C1 (stereo partly drawn) [Example 63, 3-(5-(((3R,5R)-5-ethoxy-1-ethylpiperidin-3-yl)oxy)-1-oxoisoindolin-2-yl)piperidine-2,6-dione]",–,–,0.12,79.5,20.5
"CCN1C[C@H](OC)C[C@@H](Oc2ccc3c(c2)CN(C2CCC(=O)NC2=O)C3=O)C1 (stereo partly drawn) [Example 64, 3-(5-(((3R,5R)-1-ethyl-5-methoxypiperidin-3-yl)oxy)-1-oxoisoindolin-2-yl)piperidine-2,6-dione]",–,–,6.3,79.5,20.6
"CCN1C[C@H](O)C[C@@H](Oc2ccc3c(c2)CN(C2CCC(=O)NC2=O)C3=O)C1 (stereo partly drawn) [Example 66, 3-(5-(((3R,5R)-1-ethyl-5-hydroxypiperidin-3-yl)oxy)-1-oxoisoindolin-2-yl)piperidine-2,6-dione]",19.9,80.1,33.3,–,–
"CC(C)N1C[C@H](O)C[C@@H](Oc2ccc3c(c2)CN(C2CCC(=O)NC2=O)C3=O)C1 (stereo partly drawn) [Example 67, 3-(5-(((3R,5R)-5-hydroxy-1-isopropylpiperidin-3-yl)oxy)-1-oxoisoindolin-2-yl)piperidine-2,6-dione]",16.9,83.1,11.2,–,–
"CCO[C@@H]1C[C@@H](Oc2ccc3c(c2)CN(C2CCC(=O)NC2=O)C3=O)CN(C(=O)NC)C1 (stereo partly drawn) [Example 68, (3R,5R)-3-((2-(2,6-dioxopiperidin-3-yl)-1-oxoisoindolin-5-yl)oxy)-5-ethoxy-N-methylpiperidine-1-carboxamide]",105,–,> 25000,–,–
"CCOC(=O)N1C[C@H](OCC)C[C@@H](Oc2ccc3c(c2)CN(C2CCC(=O)NC2=O)C3=O)C1 (stereo partly drawn) [Example 69, ethyl (3R,5R)-3-((2-(2,6-dioxopiperidin-3-yl)-1-oxoisoindolin-5-yl)oxy)-5-ethoxypiperidine-1-carboxylate]",106,–,> 25000,–,–
"CCO[C@@H]1C[C@@H](Oc2ccc3c(c2)CN(C2CCC(=O)NC2=O)C3=O)CN(C(C)=O)C1 (stereo partly drawn) [Example 70, 3-(5-(((3R,5R)-1-acetyl-5-ethoxypiperidin-3-yl)oxy)-1-oxoisoindolin-2-yl)piperidine-2,6-dione]",107,–,> 25000,–,–

# More lines, main results first:
remaining activity at 25 µM [1] [%],Dmax at 25 µM [%],DC50 [nM],SMILES,Dmax [%],remaining activity at 25 µM [%]
50.2,49.8,7.5,"O=C1CCC(N2Cc3cc(O[C@@H]4CCCN(CC#CC5CC5)C4)ccc3C2=O)C(=O)N1 (stereo partly drawn) [Example 25, 3-(5-(((R)-1-(3-cyclopropylprop-2-yn-1-yl)piperidin-3-yl)oxy)-1-oxoisoindolin-2-yl)piperidine-2,6-dione]",–,–
58.9,41.1,21,"CCO[C@H]1C[C@@H](N2CCC[C@@H](Oc3ccc4c(c3)CN(C3CCC(=O)NC3=O)C4=O)C2)C1 (stereo partly drawn) [Example 26, 3-(5-(((R)-1-((1s,3S)-3-ethoxycyclobutyl)piperidin-3-yl)oxy)-1-oxoisoindolin-2-yl)piperidine-2,6-dione]",–,–
60.3,39.7,130,"CO[C@H]1C[C@H](CN2CCC[C@@H](Oc3ccc4c(c3)CN(C3CCC(=O)NC3=O)C4=O)C2)C1 (stereo partly drawn) [Example 27, 3-(5-(((R)-1-(((1r,3R)-3-methoxycyclobutyl)methyl)piperidin-3-yl)oxy)-1-oxoisoindolin-2-yl)piperidine-2,6-dione]",–,–
70.8,29.2,79,"CO[C@H]1CC[C@H](CN2CCC[C@@H](Oc3ccc4c(c3)CN(C3CCC(=O)NC3=O)C4=O)C2)CC1 (stereo partly drawn) [Example 30, 3-(5-(((R)-1-(((1r,4R)-4-methoxycyclohexyl)methyl)piperidin-3-yl)oxy)-1-oxoisoindolin-2-yl)piperidine-2,6-dione]",–,–
31.4,68.6,8.9,"C=CCCN1CCC[C@@H](Oc2ccc3c(c2)CN(C2CCC(=O)NC2=O)C3=O)C1 (stereo partly drawn) [Example 31, 3-(5-(((R)-1-(but-3-en-1-yl)piperidin-3-yl)oxy)-1-oxoisoindolin-2-yl)piperidine-2,6-dione]",–,–
19.2,80.8,1.7,"CC[C@@H](C)N1CCC[C@@H](Oc2ccc3c(c2)CN(C2CCC(=O)NC2=O)C3=O)C1 (stereo partly drawn) [Example 32, 3-(5-(((R)-1-((R)-sec-butyl)piperidin-3-yl)oxy)-1-oxoisoindolin-2-yl)piperidine-2,6-dione]",–,–
18.6,81.4,1.5,"CC[C@H](C)N1CCC[C@@H](Oc2ccc3c(c2)CN(C2CCC(=O)NC2=O)C3=O)C1 (stereo partly drawn) [Example 33, 3-(5-(((R)-1-((S)-sec-butyl)piperidin-3-yl)oxy)-1-oxoisoindolin-2-yl)piperidine-2,6-dione]",–,–
35.6,64.3,25,"CC(C)CN1CCCC[C@@H](Oc2ccc3c(c2)CN(C2CCC(=O)NC2=O)C3=O)C1 (stereo partly drawn) [Example 38, 3-(5-(((R)-1-isobutylazepan-3-yl)oxy)-1-oxoisoindolin-2-yl)piperidine-2,6-dione]",–,–
73.5,26.5,770,"CCN1CC[C@H](Oc2ccc3c(c2)CN(C2CCC(=O)NC2=O)C3=O)C1 (stereo partly drawn) [Example 40, 3-(5-(((S)-1-ethylpyrrolidin-3-yl)oxy)-1-oxoisoindolin-2-yl)piperidine-2,6-dione]",–,–
22.9,77.1,3.6,"O=C1CCC(N2Cc3cc(O[C@@H]4CCCN(C5CCCC5)C4)ccc3C2=O)C(=O)N1 (stereo partly drawn) [Example 42, 3-(5-(((R)-1-cyclopentylpiperidin-3-yl)oxy)-1-oxoisoindolin-2-yl)piperidine-2,6-dione]",–,–
28.1,71.9,3.7,"O=C1CCC(N2Cc3cc(O[C@@H]4CCCN(C5CCCCC5)C4)ccc3C2=O)C(=O)N1 (stereo partly drawn) [Example 43, 3-(5-(((R)-1-cyclohexylpiperidin-3-yl)oxy)-1-oxoisoindolin-2-yl)piperidine-2,6-dione]",–,–
